# Measured values as given in US20260256794A1, “Oral Dynamine Formulations and Methods Therefor” (Ortho-Nutra, LLC, priority 2023, published 2026).
# Columns and labels:
# Type in all cases: in vivo, human
# [1] = test system: subjects; assay: Hemodynamics: heart rate
# Procedure: (§1) Hemodynamics Systolic Blood Pressure, Diastolic Blood Pressure, Heart Rate were taken Pre and Post Stroop Test on Day 0; Pre and Post Stroop Test after 4 Days of Supplementation 0, 60, 120, and 180 minutes after ingestion of 4th dose.
# (§2) For hemodynamic parameters, systolic blood pressure, diastolic blood pressure, and heart rate were taken pre- and post-Stroop Test on Day 0, and pre- and post-Stroop Test after 4 Days of Supplementation 0, 60, 120, and 180 minutes after ingestion of 4th dose.
# [2] = test system: subjects; assay: VAS-Mental Stamina; design: VAS-Mental Stamina rating, Mean / VAS-Mental Stamina changes from baseline, Mean Difference ± SE / VAS-Mental Stamina area under the curve, Mean Difference ± SE / VAS-Mental Stamina area under the curve, Mean: scale not given here
# Procedure: (§3) The inventors have discovered various compositions and methods of improving various indices of neurological and neuroenergetic functions by administering 100 mg (once daily) dosages of DYNAMINE™ (dosage between 1.0 and 1.4 mg/kg) as described in the following:
# (§4) All neuroenergetic tests as listed below were performed and data were collected after 0 and 4 days of assigned supplements (with acute effects also measured at day 4 over 180 minutes):
# (§5) All VAS Measurement (Energy, Sustained Energy, Mental Stamina, Ability to Focus, Ability to Concentrate, Motivation to Accomplish Difficult Tasks, Drive, Vigor, Level of Positive Outlook, Mood, Feelings of Well-Being, Tolerate Stress); Day 0: Two tests were completed. The average of both scores was computed and this value was used in all statistical analysis. Day 4 (0 minutes after ingesting dose #4): Two tests were completed. The average of both scores was computed and this value was used in all statistical analysis. Day 4 (60, 120, and 180 minutes after ingesting dose #4): One test was completed at each time point.
# (§6) Neuroenergic parameters are inherently subjective, nevertheless significant in human behavior and well-being. To allow for a standardization among different subjects, the following experiments were performed using a visual analog scale using anchor statements (lowest possible/highest possible) in which subjects were asked to rate their subjective experience with respect to the specific neuroenergic parameters tested.
# VAS-Mental Stamina: In this subjective test, subjects were asked to rate their personal level of energy on a VAS scale using the prompt of “My level of mental stamina right now is . . . ” (with rating lowest possible to highest possible)”. Results were collected as noted above and Table 10 provides exemplary results for Day 0 versus Day 4 ratings, whereas Table 11 provides exemplary acute results measured at Day 4 over a duration of 180 minutes.
# [3] = test system: subjects; assay: VAS-Drive; design: VAS-Drive rating, Mean / VAS-Drive changes from baseline, Mean Difference ± SE: scale not given here; VAS-Drive area under the curve, Mean Difference ± SE / VAS-Drive area under the curve, Mean: unit not given here
# Procedure: as §3, §4, §5, §6
# VAS-Drive: In this subjective test, subjects were asked to rate their personal level of energy on a VAS scale using the prompt of “My drive right now is . . . ” (with rating lowest possible to highest possible)”. Results were collected as noted above and Table 22 provides exemplary results for Day 0 versus Day 4 ratings, whereas Table 23 provides exemplary acute results measured at Day 4 over a duration of 180 minutes.
# [4] = test system: subjects; assay: VAS-Ability to concentrate; design: VAS-Ability to concentrate rating, Mean / VAS-Ability to concentrate changes from baseline, Mean Difference ± SE / VAS-Ability to concentrate area under the curve, Mean Difference ± SE / VAS-Ability to concentrate area under the curve, Mean: scale not given here
# Procedure: as §3, §4, §5, §6
# VAS-Ability to concentrate: In this subjective test, subjects were asked to rate their personal level of energy on a VAS scale using the prompt of “My ability to concentrate right now is . . . ” (with rating lowest possible to highest possible)”. Results were collected as noted above and Table 16 provides exemplary results for Day 0 versus Day 4 ratings, whereas Table 17 provides exemplary acute results measured at Day 4 over a duration of 180 minutes.
# [5] = test system: subjects; assay: Hemodynamics: systolic blood pressure; settings: for Systolic blood pressure changes from baseline, Mean Difference ± SE / Systolic blood pressure changes from baseline, effect size d: between groups (placebo)
# Procedure: as §3, §1, §2
# [6] = 100 mg once daily, Day 4, 0-180 min
# [7] = 100 mg once daily, Day 4, 0-180 min, vs Group A (placebo)
# [8] = 100 mg once daily, Day 4, 0 min after dose #4
# [9] = 100 mg once daily, Day 4, 60 min-0 min, vs Group A (placebo)
# [10] = 100 mg once daily, Day 4, 60 min after dose #4
# [11] = 100 mg once daily, Day 4, 120 min-0 min, vs Group A (placebo)
# [12] = 100 mg once daily, Day 4, 120 min after dose #4
# [13] = 100 mg once daily, Day 4, 180 min-0 min, vs Group A (placebo)
# [14] = 100 mg once daily, Day 4, 180 min after dose #4
# [15] = 100 mg once daily, Day 4, 60 min-0 min
# [16] = 100 mg once daily, Day 4, 120 min-0 min
# [17] = 100 mg once daily, Day 4, 180 min-0 min
structure (smiles),measurement,setting,value
"COc1nc2c(c(=O)n1C)n(C)c(=O)n2C [methylliberine, 2-methoxy-1,7,9-trimethylpurine-6,8-dione]","Heart rate, Mean","[1]; 100 mg once daily, Day 4",69.8 beats/min
same,"Heart rate, Mean",[1]; Day 0 (before supplementation),71.4 beats/min
same,"VAS-Mental Stamina area under the curve, Mean",[2]; [6],1133
same,"VAS-Mental Stamina area under the curve, Mean Difference ± SE",[2]; [7],59.2 ± 46.2
same,"VAS-Mental Stamina area under the curve, effect size d",[2]; [7],0.18
same,"VAS-Mental Stamina rating, Mean",[2]; [8],6.0
same,"VAS-Mental Stamina changes from baseline, Mean Difference ± SE",[2]; [9],−0.12 ± 0.22
same,"VAS-Mental Stamina changes from baseline, effect size d",[2]; [9],−0.15
same,"VAS-Mental Stamina rating, Mean",[2]; [10],6.3
same,"VAS-Mental Stamina changes from baseline, Mean Difference ± SE",[2]; [11],−0.21 ± 0.28
same,"VAS-Mental Stamina changes from baseline, effect size d",[2]; [11],−0.21
same,"VAS-Mental Stamina rating, Mean",[2]; [12],6.3
same,"VAS-Mental Stamina changes from baseline, Mean Difference ± SE",[2]; [13],0.16 ± 0.24
same,"VAS-Mental Stamina changes from baseline, effect size d",[2]; [13],0.15
same,"VAS-Mental Stamina rating, Mean",[2]; [14],6.6
same,"VAS-Mental Stamina rating, Mean",[2]; Day 0 (before supplementation),5.7
same,"VAS-Drive area under the curve, Mean",[3]; [6],1110
same,"VAS-Drive area under the curve, Mean Difference ± SE",[3]; [7],20.4 ± 37.8
same,"VAS-Drive area under the curve, effect size d",[3]; [7],0.06
same,"VAS-Drive rating, Mean",[3]; [8],5.9
same,"VAS-Drive changes from baseline, Mean Difference ± SE",[3]; [9],−0.06 ± 0.27
same,"VAS-Drive changes from baseline, effect size d",[3]; [9],−0.07
same,"VAS-Drive rating, Mean",[3]; [10],6.1
same,"VAS-Drive changes from baseline, Mean Difference ± SE",[3]; [11],−0.16 ± 0.28
same,"VAS-Drive changes from baseline, effect size d",[3]; [11],−0.15
same,"VAS-Drive rating, Mean",[3]; [12],6.2
same,"VAS-Drive changes from baseline, Mean Difference ± SE",[3]; [13],0.33 ± 0.35
same,"VAS-Drive changes from baseline, effect size d",[3]; [13],0.26
same,"VAS-Drive rating, Mean",[3]; [14],6.4
same,"VAS-Drive rating, Mean",[3]; Day 0 (before supplementation),5.8
same,"VAS-Ability to concentrate area under the curve, Mean",[4]; [6],1162
same,"VAS-Ability to concentrate area under the curve, Mean Difference ± SE",[4]; [7],48.1 ± 38.7
same,"VAS-Ability to concentrate area under the curve, effect size d",[4]; [7],0.16
same,"VAS-Ability to concentrate rating, Mean",[4]; [8],5.9
same,"VAS-Ability to concentrate changes from baseline, Mean Difference ± SE",[4]; [9],0.26 ± 0.26
same,"VAS-Ability to concentrate changes from baseline, effect size d",[4]; [9],0.28
same,"VAS-Ability to concentrate rating, Mean",[4]; [10],6.5
same,"VAS-Ability to concentrate changes from baseline, Mean Difference ± SE",[4]; [11],0.15 ± 0.27
same,"VAS-Ability to concentrate changes from baseline, effect size d",[4]; [11],0.14
same,"VAS-Ability to concentrate rating, Mean",[4]; [12],6.5
same,"VAS-Ability to concentrate changes from baseline, Mean Difference ± SE",[4]; [13],0.70 ± 0.23
same,"VAS-Ability to concentrate changes from baseline, effect size d",[4]; [13],0.68
same,"VAS-Ability to concentrate rating, Mean",[4]; [14],6.8
same,"VAS-Ability to concentrate rating, Mean",[4]; Day 0 (before supplementation),5.9
same,"Systolic blood pressure, Mean","[5]; 100 mg once daily, Day 4, 0 min after 4th dose",121.4 mm Hg
same,"Systolic blood pressure changes from baseline, Mean Difference ± SE",[5]; [15],1.16 ± 2.57 mm Hg
same,"Systolic blood pressure changes from baseline, effect size d",[5]; [15],−0.12
same,"Systolic blood pressure, Mean","[5]; 100 mg once daily, Day 4, 60 min after 4th dose",117.9 mm Hg
same,"Systolic blood pressure changes from baseline, Mean Difference ± SE",[5]; [16],−0.60 ± 2.22 mm Hg
same,"Systolic blood pressure changes from baseline, effect size d",[5]; [16],0.06
same,"Systolic blood pressure, Mean","[5]; 100 mg once daily, Day 4, 120 min after 4th dose",120.6 mm Hg
same,"Systolic blood pressure changes from baseline, Mean Difference ± SE",[5]; [17],2.40 ± 2.25 mm Hg
same,"Systolic blood pressure changes from baseline, effect size d",[5]; [17],−0.27
same,"Systolic blood pressure, Mean","[5]; 100 mg once daily, Day 4, 180 min after 4th dose",120.0 mm Hg
same,"Systolic blood pressure, Mean",[5]; Day 0 (before supplementation),118.6 mm Hg
